Experimental data published in PMC8155467 (ACS Central Science, 2021).

What was measured:
[1] = molecular target: AKR1B10_C299A mutant (Homo sapiens, UniProt O60218, C299A); assay: AKR1B10 Inhibition Assay; format: biochemical; conditions: VC59 0.5-50 µM, 1 h; tolrestat, isolithocholic acid 500 nM, 15 min
[2] = molecular target: AKR1B10 (Homo sapiens, UniProt O60218); conditions: cited from earlier work
Sequence of AKR1B10 (O60218 whole entry): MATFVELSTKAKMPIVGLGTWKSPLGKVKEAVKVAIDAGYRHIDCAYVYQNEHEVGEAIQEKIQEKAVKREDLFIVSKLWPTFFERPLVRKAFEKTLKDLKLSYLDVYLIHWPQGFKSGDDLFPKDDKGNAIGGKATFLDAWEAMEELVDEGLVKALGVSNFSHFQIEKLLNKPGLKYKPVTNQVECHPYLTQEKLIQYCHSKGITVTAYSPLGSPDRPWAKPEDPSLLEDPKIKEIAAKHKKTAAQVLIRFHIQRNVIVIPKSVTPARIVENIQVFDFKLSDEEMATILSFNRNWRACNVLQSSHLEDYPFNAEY

Sequence of AKR1B10_C299A mutant (O60218 whole entry C299A): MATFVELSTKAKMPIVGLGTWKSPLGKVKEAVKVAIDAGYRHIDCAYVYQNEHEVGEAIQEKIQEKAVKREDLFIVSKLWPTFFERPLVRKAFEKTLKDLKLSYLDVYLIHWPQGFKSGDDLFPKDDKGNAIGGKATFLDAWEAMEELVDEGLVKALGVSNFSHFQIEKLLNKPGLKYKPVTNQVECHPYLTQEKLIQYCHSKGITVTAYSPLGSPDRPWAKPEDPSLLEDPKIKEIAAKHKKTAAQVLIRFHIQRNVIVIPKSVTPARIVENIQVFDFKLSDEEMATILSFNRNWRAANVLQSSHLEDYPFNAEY

| inhibition of AKR1B10_C299A mutant reductase activity (NADPH absorbance assay) [1] | SMILES | inhibition of AKR1B10 activity by natural electrophilic compounds engaging C299 [2] |
| --- | --- | --- |
| maintained sensitivity | C[C@H](CCC(=O)O)[C@H]1CC[C@H]2[C@@H]3CC[C@@H]4C[C@@H](O)CC[C@]4(C)[C@H]3CC[C@]12C [isolithocholic acid] |  |
|  | CCCCC[C@H](O)/C=C/[C@H]1C=CC(=O)[C@@H]1CCCCCCC(=O)O [prostaglandin A1] | inhibit AKR1B10 activity |
| maintained sensitivity | COc1ccc2c(C(=S)N(C)CC(=O)O)cccc2c1C(F)(F)F [tolrestat] |  |
